Patent publication US20240124424A1, “SOLID FORMS OF (5S)-CYCLOPROPYL-5-[3-[(3S)-4-(3,5-DIFLUOROPHENYL)-3-METHYL-PIPERAZIN-1-YL]-3-OXO-PROPYL]IMIDAZOLIDINE-2,4-DIONE” (Galapagos NV, priority 2020, published 2024)
Where “and” joins values, the source holds several entries; their conditions need not be identical. Equal entries are not always repeated.

Tests used:
[1] = Stability study of the solid forms; assay type: physicochemical; details: for Stability of solid forms under different conditions: result in words
[2] = test system: Balb/c mice; test: Protein overload nephrectomy model; assay type: in vivo; details: day 14, individual mice, Cpd 1 240 mg/kg/day b.i.d. or lisinopril 10 mg/kg/day, oral gavage; for proteinuria / urine creatinine: 24 h urine; for Protein/creatinine: urine ratio
Description: This animal model allows to assess the efficacy of the compound of the invention in renal disease, including renal fibrosis.
This study was undertaken in Balb/c mice (Charles River).
Mice underwent a left unilateral nephrectomy via a short flank incision under anaesthesia.
Sham control mice received an incision only . The mice were allowed to recover from surgery for 7 days.
Drug treatment commenced one day prior to initiation of protein overload.
Each mouse received either Cpd 1 240 mg/kg/day b.i.d. (dosed daily at 8h00 and 15h30), or 10 mg/kg/day Lisinopril (one dose Lisinopril plus one dose of vehicle), or vehicle alone (0.5% methyl cellulose containing 2% Tween 80—two doses) by oral gavage.
Sham mice received vehicle alone. Protein overload was initiated by daily intraperitoneal injections of sterile filtered 450 mg/ml BSA solution in saline (Sigma cat A4919: low endotoxin) starting from 2 mg/g body weight on day one and increasing to 15 mg/g on day 7 until day 14 according to schedule below:
Sham mice received equivalent volumes of saline. After the last injection, mice were housed in metabolic cages for 24 h urine collection.
The mice were then anaesthetized before sacrifice. Blood sample was collected. The remaining right kidneys were perfused with PBS (Sigma 806552)+10 mM EDTA (Invitrogen 15575-02—stock 0.5M) after which they were excised and transverse dissected.
All data were expressed as means±SEM. Results were analysed using GraphPad Prism 8. D'Agostino-Pearson omnibus normality tests were performed to assess normality for data sets >8, while a Shapiro-Wilk test was applied to data sets <8. For multiple comparisons, a one-way ANOVA with Tukey's post hoc correction (parametric) or a Kruskal-Wallis test with Dunn's post hoc test (non-parametric data) were used. ELISA standard curves were plotted using a Sigmoidal4PL fit where x was the log of the standard concentration. Relative mRNA expression levels were calculated according to the Livak equation as 2-ΔCt. A confidence interval of 0.95, p≤0.05, was applied for all statistical tests.
The following endpoints were measured: • Urine Protein concentration mg/mL, • Urine protein/mg creatinine (mg/mg) • serum protein concentration (mg/mL), • urine creatinine concentration (mg/dL)(mg/mL) • Serum creatinine concentration (mg/dL) • Serum urea concentration (mg/dL) • Versikine, NITEGE, ARGS dot blots • Immunohistochemistry: ADAMTS5, Collagen I, Collagen IV, fibronectin, CD45, complement C3, F4/80

[3] = test system: mdx mice; test: Duchenne muscular dystrophy mdx model; assay type: in vivo; design: Average force output (grip strength) / Tissue volume / Bone volume: unit not given here; details: mean, Cpd 1 120 mg/kg p.o. b.i.d., prednisolone 5 mg/kg p.o. qd; for Av. g/g BW (average force output/g of body weight) / Average force output (grip strength): n = 15
Source text: The male mdx mice is the most used animal model for pre-clinical Duchenne muscular dystrophy (DMD) research.
Five-week-old mdx mice (Animal Resource Centre; Perth, WA, Australia) were allowed to acclimatise for 1 week to their surroundings, before being randomly allocated to one of four treatment groups or an untreated control group (15 animals per group) as described in the table below. At the start of the study, these groups were matched for mouse body weight.
The untreated control mdx mice were restrained throughout the study. Following 1-week acclimatisation, this group of mice also have baseline measurements of grip strength and body composition taken, which were repeated at ˜10 weeks and ˜15 weeks of age. Furthermore, these mice were weighed on a regular basis and their urine was collected at ˜6, ˜10 and ˜15 weeks of age. […]
Bone structure was evaluated via μCT analysis of cortical and trabecular bone on the femur.

[4] = test system: BALB/c (H2^d) mice; test: Graft versus host (cGvHD) lung model; assay type: in vivo; details: 120 mg/kg p.o. b.i.d., statistically significant
Source text: In this cGvHD model, fibrosis was induced in BALB/c (H2^d) mice by allogeneic transplantation of bone marrow cells and splenocytes from B10.D2 (H2^d) donor mice (minor HLA mismatch). The recipient mice develop inflammation-driven dermal and pulmonary fibrosis resembling patients with rapidly progressive diffuse cutaneous systemic sclerosis (Zen et al., 2012).
The treatment was provided only after the onset of first clinical symptoms of sclerodermatous cGvHD.
The following groups with each eight mice were used in this study • Syngeneically transplanted, placebo-treated control group: Syngeneic bone marrow and splenocyte transplantation (BALB/c (H2^d)→BALB/c (H2^d)). Application of methyl cellulose 0.5% from day 21 to day 56 post transplantation. • Vehicle-treated fibrosis group: Allogeneic bone marrow and splenocyte transplantation (B10.D2 (H2^d)→BALB/c (H2^d)). Application of methyl cellulose 0.5% from day 21 to day 56 post transplantation • Control group to assess pretreatment levels of fibrosis induced by allogeneic transplantation: Allogeneic bone marrow and splenocyte transplantation (B10.D2 (H2^d)→BALB/c (H2^d)). Sacrifice at day 21, before treatment was initiated in the other groups. • Treatment group: Allogeneic bone marrow and splenocyte transplantation (B10.D2 (H2^d)→BALB/c (H2^d)). Application of a test compound of the invention from day 21 to day 56 post transplantation. • Positive control group: Allogeneic bone marrow and splenocyte transplantation (B10.D2 (H2^d)→BALB/c (H2^d)). Application of 50 mg/kg qd nintedanib from day 21 to day 56 post transplantation.
Animals were sacrificed 2 h post last dose, and samples of skin (3 mm punch biopsies), lung, spleen and blood were collected for histology and gene expression analysis.
The anti-fibrotic effects on skin were analysed by determination of dermal thickness, quantification of lesional collagen and staining for myofibroblasts.
In case of positive effects on skin fibrosis, effects on pulmonary fibrosis were analysed by Ashcroft scoring, hydroxyproline content, and quantification of the collagen covered area using Sirius red staining
Based on individual animal raw data, the means for each group were determined and percent change from disease controls was calculated. Treatment groups were compared to disease controls using a one-way analysis of variance (1-way ANOVA) with a Dunnett's post-hoc analysis for measured (parametric) data or a Kruskal-Wallis test with a Dunn's post-hoc analysis for scored (non-parametric) data.

[5] = PK study in human, tablets of Form I and Form II; assay type: in vivo; details: fasted, 300 mg oral
Description: Following a single 300 mg oral administration of Cpd 1 under fasted and/or fed conditions to healthy male subjects (18 subjects per group) as 30% or 50% drug load tablets of crystalline form I and crystalline form II, concentrations of Cpd 1 human plasma concentrations were determined using protein precipitation extraction with liquid chromatography with tandem mass spectrometry (LC-MS/MS) detection.
The lower limit of quantification was 1 ng/mL. In each analytical run, duplicate QC samples were analyzed along with the study samples.
Blood samples (2 mL) for determination of Cpd 1 in plasma were collected at various time points into tubes containing lithium heparin and were immediately chilled (ice bath). Within 30 min after blood collection, the plasma was separated in a refrigerated centrifuge at 4° C. for 10 min at circa 1,500 g.
Predose PK samples were collected within 15 min predose then at the following time points: 0.5 h, 1 h, 1.5 h, 2 h, 2.5 h, 3 h, 4 h, 5 h, 6 h, 8 h, 12 h, 16 h, 24 h, 48 h, 72 h. For all PK samples between 0.5 and 16 h, a window of ±5 min was allowed; for 24- to 72-h samples, a window of ±30 min was allowed.
All statistical analyses were performed using SAS® version 9.4 (or higher) (SAS Institute, Cary, NC, USA) and/or Phoenix WinNonLin (version 8 or higher) software.
All relevant data were documented using summary tables, figures, and subject data listings. […]

[6] = storage 25° C./60% RH - 12 months
[7] = storage 40° C./75% RH - 6 months

Row | Stability of solid forms under different conditions [1] | Stability [1, 6] | Stability [1, 7] | SMILES | proteinuria [2] | urine creatinine [2] | serum creatinine [2] | Protein/creatinine [2] | BV/TV (bone volume fraction) ([3]; after treatment) | Bone volume ([3]; after treatment) | Av. g/g BW (average force output/g of body weight) ([3]; mid treatment (4 weeks)) | Average force output (grip strength) ([3]; mid treatment (4 weeks)) | Av. g/g BW (average force output/g of body weight) ([3]; post treatment (9 weeks)) | Average force output (grip strength) ([3]; post treatment (9 weeks)) | Av. g/g BW (average force output/g of body weight) ([3]; pre-treatment) | Average force output (grip strength) ([3]; pre-treatment) | further results
1 | stable | 100% | 99.3% | C[C@H]1CN(C(=O)CC[C@@]2(C3CC3)NC(=O)NC2=O)CCN1c1cc(F)cc(F)c1 [Amorphous, (5S)-cyclopropyl-5-[3-[(3S)-4-(3,5-difluorophenyl)-3-methyl-piperazin-1-yl]-3-oxo-propyl]imidazolidine-2,4-dione] |  |  |  |  |  |  |  |  |  |  |  |  | 
2 |  |  |  | C[C@H]1CN(C(=O)CC[C@@]2(C3CC3)NC(=O)NC2=O)CCN1c1cc(F)cc(F)c1 [Cpd 1, (5S)-cyclopropyl-5-[3-[(3S)-4-(3,5-difluorophenyl)-3-methyl-piperazin-1-yl]-3-oxo-propyl]imidazolidine-2,4-dione] | 75.2 mg/mL and 54.7 mg/mL and 187 mg/mL and 79.4 mg/mL and 145 mg/mL and 72.4 mg/mL and 143.5 mg/mL and 229.6 mg/mL and 163 mg/mL and 44.4 mg/mL | 0.33 mg/mL and 0.34 mg/mL and 0.38 mg/mL and 0.25 mg/mL (2×) and 0.29 mg/mL and 0.26 mg/mL and 0.297 mg/mL and 0.384 mg/mL and 0.28 mg/mL | 0.43 mg/dL and 0.4 mg/dL and 0.47 mg/dL and 0.44 mg/dL and 0.41 mg/dL and 0.46 mg/dL and 0.39 mg/dL and 0.38 mg/dL and 0.3 mg/dL and 0.37 mg/dL | 229 and 160 and 497 and 321 and 581 and 250 and 550 and 774 and 425 and 159 | 36.09% | 0.80 | 3.72 g/g | 91.88 | 3.86 g/g | 88.24 | 2.86 g/g | 61.13 | Tissue volume ([3]; after treatment): 2.21; reduction of Hydroxyproline content in skin [4]: −8.3%; decrease of Ashcroft score compared to the vehicle group ([4]; lung): −1,3 fold; decrease of collagen-covered lung area compared to the vehicle group ([4]; lung): −1,2 fold; reduction of myofibroblast count ([4]; skin): −35%
3 | stable | 100% | 100% | C[C@H]1CN(C(=O)CC[C@@]2(C3CC3)NC(=O)NC2=O)CCN1c1cc(F)cc(F)c1 [Form I, (5S)-cyclopropyl-5-[3-[(3S)-4-(3,5-difluorophenyl)-3-methyl-piperazin-1-yl]-3-oxo-propyl]imidazolidine-2,4-dione] |  |  |  |  |  |  |  |  |  |  |  |  | 
4 | stable | 99.3% | 98.7% | C[C@H]1CN(C(=O)CC[C@@]2(C3CC3)NC(=O)NC2=O)CCN1c1cc(F)cc(F)c1 [Form II, (5S)-cyclopropyl-5-[3-[(3S)-4-(3,5-difluorophenyl)-3-methyl-piperazin-1-yl]-3-oxo-propyl]imidazolidine-2,4-dione] |  |  |  |  |  |  |  |  |  |  |  |  | increase in plasma peak exposure (Cmax) compared to polymorphic form I ([5]; 30% load tablet): 34%; increase in plasma peak exposure (Cmax) compared to polymorphic form I ([5]; 50% load tablet): 40%
5 |  |  |  | NCCCC[C@H](N[C@@H](CCc1ccccc1)C(=O)O)C(=O)N1CCC[C@H]1C(=O)O [lisinopril, reference compound] | 59.1 mg/mL and 128.8 mg/mL and 55.8 mg/mL and 197.6 mg/mL and 71.7 mg/mL and 264.6 mg/mL and 284 mg/mL and 82.1 mg/mL and 80 mg/mL and 79 mg/mL | 0.467 mg/mL and 0.378 mg/mL and 0.32 mg/mL and 0.36 mg/mL and 0.3 mg/mL and 0.34 mg/mL and 0.41 mg/mL and 0.38 mg/mL and 0.22 mg/mL and 0.42 mg/mL | 0.39 mg/dL and 0.41 mg/dL and 0.34 mg/dL and 0.35 mg/dL and 0.25 mg/dL and 0.57 mg/dL (2×) and 0.46 mg/dL and 0.55 mg/dL and 0.54 mg/dL | 127 and 341 and 174 and 552 and 238 and 774 and 700 and 216 and 364 and 188 |  |  |  |  |  |  |  |  | 
6 |  |  |  | C[C@]12C=CC(=O)C=C1CC[C@@H]1[C@@H]2[C@@H](O)C[C@@]2(C)[C@H]1CC[C@]2(O)C(=O)CO [prednisolone, reference compound] |  |  |  |  | 29.84% | 0.70 | 3.44 g/g | 84.86 | 2.93 g/g | 78.84 | 2.83 g/g | 60.55 | 
